In US9113629B2, “4-amino-6-(4-substituted-phenyl)-picolinates and 6-amino-2-(4-substituted-phenyl)-pyrimidine-4-carboxylates and their use as herbicides” (DOW AGROSCIENCES LLC, priority 2013, dated 2015):
Where two headings read alike, the source gives them in different places.

How the values were obtained:
[1] = tested on: Key Broadleaf Weed and Crop Species; experiment: Post-emergent Test II herbicidal activity (Table 5); type: in vivo; conditions: post-emergence, 336 h, post-emergent, 14 days after application; for pest or weed control at 70 g/ha: 70 g ai/ha; for pest or weed control at 140 g/ha: 140 g ai/ha
How it was run: (§1)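 Visual injury ratings (0 = no injury, 100 = complete kill) were taken 14 d after treatment, relative to untreated plants. Seedlings at the first–second true leaf stage received overhead spray at 187 L/ha; the highest rate was serially diluted to ½×, ¼×, ⅛× and 1/16×.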

[2] = tested on: Key Grass and Sedge Weeds as well as Grass Crops; experiment: Post-emergent Test II herbicidal activity (Table 6); type: in vivo; conditions: post-emergence, 336 h; for pest or weed control at 70 g/ha: application rate 70 g ai/ha; for pest or weed control at 140 g/ha: application rate 140 g ai/ha
How it was run: as §1

[3] = ABUTH: velvetleaf (Abutilon theophrasti), read-out: Visual Growth Reduction (%) 14 Days After Application ABUTH
[4] = AMARE: redroot pigweed (Amaranthus retroflexus), read-out: Visual Growth Reduction (%) 14 Days After Application AMARE
[5] = BRSNN: oilseed-rape, canola (Brassica napus), read-out: Visual Growth Reduction (%) 14 Days After Application BRSNN
[6] = CHEAL: lambsquarters (Chenopodium album), read-out: Visual Growth Reduction (%) 14 Days After Application CHEAL
[7] = EPHHL: wild poinsettia (Euphorbia heterophylla), read-out: Visual Growth Reduction (%) 14 Days After Application EPHHL
[8] = HELAN: sunflower (Helianthus annuus), read-out: Visual Growth Reduction (%) 14 Days After Application HELAN
[9] = VIOTR: wild pansy (Viola tricolor), read-out: Visual Growth Reduction (%) 14 Days After Application VIOTR
[10] = Triticum aestivum, TRZSS (wheat), read-out: Visual Growth Reduction (%) 14 Days After Application, TRZSS
[11] = CYPES: yellow nutsedge (Cyperus esculentus), read-out: Visual Growth Reduction (%) 14 Days After Application, CYPES
[12] = DIGSA: crabgrass (Digitaria sanguinalis), read-out: Visual Growth Reduction (%) 14 Days After Application, DIGSA
[13] = ECHCG: barnyardgrass (Echinochloa crus-galli), read-out: Visual Growth Reduction (%) 14 Days After Application, ECHCG
[14] = ORYSA: rice (Oryza sativa), read-out: Visual Growth Reduction (%) 14 Days After Application, ORYSA
[15] = SETFA: giant foxtail (Setaria faberi), read-out: Visual Growth Reduction (%) 14 Days After Application, SETFA
[16] = SORVU: grain sorghum (Sorghum vulgare), read-out: Visual Growth Reduction (%) 14 Days After Application, SORVU
[17] = ZEAMX: maize, corn (Zea mays), read-out: Visual Growth Reduction (%) 14 Days After Application, ZEAMX

| Compound | pest or weed control at 70 g/ha [1, 3] [%] | pest or weed control at 140 g/ha [1, 3] [%] | pest or weed control at 70 g/ha [1, 4] [%] | pest or weed control at 140 g/ha [1, 4] [%] | pest or weed control at 70 g/ha [1, 5] [%] | pest or weed control at 140 g/ha [1, 5] [%] | pest or weed control at 70 g/ha [1, 6] [%] | pest or weed control at 140 g/ha [1, 6] [%] | pest or weed control at 70 g/ha [1, 7] [%] | pest or weed control at 140 g/ha [1, 7] [%] | pest or weed control at 70 g/ha [1, 8] [%] | pest or weed control at 140 g/ha [1, 8] [%] | pest or weed control at 70 g/ha [1, 9] [%] | pest or weed control at 140 g/ha [1, 9] [%] | pest or weed control at 140 g/ha [2, 10] [%] | pest or weed control at 70 g/ha [2, 11] [%] | pest or weed control at 140 g/ha [2, 11] [%] | pest or weed control at 70 g/ha [2, 12] [%] | pest or weed control at 140 g/ha [2, 12] [%] | pest or weed control at 70 g/ha [2, 13] [%] | other results |
| --- | --- | --- | --- | --- | --- | --- | --- | --- | --- | --- | --- | --- | --- | --- | --- | --- | --- | --- | --- | --- | --- |
| Nc1cc(-c2ccc(I)cc2F)nc(C(=O)O)c1Cl [Compound 124] | 85 to 94 | 85 to 94 | 95 to 100 | 95 to 100 | 95 to 100 | 95 to 100 | 95 to 100 | 95 to 100 | 95 to 100 | 95 to 100 | 85 to 94 | 85 to 94 | 95 to 100 | 95 to 100 | 60 to 74 | 95 to 100 | 95 to 100 | 75 to 84 | 85 to 94 | 85 to 94 | pest or weed control at 70 g/ha [2, 10]: 45 to 59%; pest or weed control at 140 g/ha [2, 13]: 85 to 94%; pest or weed control at 70 g/ha [2, 14]: 30 to 44%; pest or weed control at 140 g/ha [2, 14]: 30 to 44%; pest or weed control at 70 g/ha [2, 15]: 60 to 74%; pest or weed control at 140 g/ha [2, 15]: 95 to 100%; pest or weed control at 70 g/ha [2, 16]: 95 to 100%; pest or weed control at 140 g/ha [2, 16]: 95 to 100%; pest or weed control at 70 g/ha [2, 17]: 75 to 84%; pest or weed control at 140 g/ha [2, 17]: 75 to 84% |
| Nc1c(Cl)c(C(=O)O)nc(-c2ccc(Br)c(F)c2)c1Cl [Compound 43, 4-Amino-6-(4-bromo-3-fluorophenyl)-3,5-dichloropicolinic acid] | 85 to 94 | 85 to 94 | 95 to 100 | 95 to 100 | 95 to 100 | 95 to 100 | 75 to 84 | 75 to 84 | 60 to 74 | 60 to 74 | 95 to 100 | 95 to 100 | 95 to 100 | 95 to 100 | 60 to 74 | 95 to 100 | 95 to 100 | 75 to 84 | 75 to 84 | 75 to 84 | pest or weed control at 70 g/ha [2, 10]: 60 to 74%; pest or weed control at 140 g/ha [2, 13]: 60 to 74%; pest or weed control at 70 g/ha [2, 14]: 0 to 29%; pest or weed control at 140 g/ha [2, 14]: 30 to 44%; pest or weed control at 70 g/ha [2, 15]: 60 to 74%; pest or weed control at 140 g/ha [2, 15]: 60 to 74%; pest or weed control at 70 g/ha [2, 16]: 95 to 100%; pest or weed control at 140 g/ha [2, 16]: 95 to 100%; pest or weed control at 70 g/ha [2, 17]: 75 to 84%; pest or weed control at 140 g/ha [2, 17]: 75 to 84% |
| COC(=O)c1nc(-c2cc(F)c(I)cc2F)c(F)c(N)c1Cl [Compound 55, methyl 4-amino-3-chloro-6-(2,5-difluoro-4-iodophenyl)-5-fluoropicolinate] | 95 to 100 | 95 to 100 | 95 to 100 | 95 to 100 | 95 to 100 | 95 to 100 | 95 to 100 | 95 to 100 | 95 to 100 | 95 to 100 | 95 to 100 | 95 to 100 | 95 to 100 | 95 to 100 | 95 to 100 | 95 to 100 | 95 to 100 | 85 to 94 | 85 to 94 | 95 to 100 | pest or weed control at 140 g/ha [2, 13]: 95 to 100%; pest or weed control at 70 g/ha [2, 14]: 0 to 29%; pest or weed control at 140 g/ha [2, 14]: 0 to 29%; pest or weed control at 70 g/ha [2, 15]: 95 to 100%; pest or weed control at 140 g/ha [2, 15]: 95 to 100%; pest or weed control at 70 g/ha [2, 16]: 85 to 94%; pest or weed control at 140 g/ha [2, 16]: 95 to 100%; pest or weed control at 70 g/ha [2, 17]: 60 to 74%; pest or weed control at 140 g/ha [2, 17]: 85 to 94% |
| COC(=O)c1nc(-c2ccc(Br)c(F)c2)nc(N)c1OC [Compound 171, Methyl 6-amino-2-(4-bromo-3-fluorophenyl)-5-methoxypyrimidine-4-carboxylate] | 75 to 84 | 85 to 94 | 85 to 94 | 95 to 100 | 85 to 94 | 85 to 94 | 85 to 94 | 85 to 94 | 95 to 100 | 95 to 100 | 85 to 94 | 85 to 94 | 95 to 100 | 95 to 100 | 30 to 44 | 45 to 59 | 45 to 59 | 0 to 29 | 60 to 74 | 30 to 44 | pest or weed control at 70 g/ha [2, 10]: 30 to 44%; pest or weed control at 140 g/ha [2, 13]: 60 to 74%; pest or weed control at 70 g/ha [2, 14]: 0 to 29%; pest or weed control at 140 g/ha [2, 14]: 0 to 29%; pest or weed control at 70 g/ha [2, 15]: 0 to 29%; pest or weed control at 140 g/ha [2, 15]: 0 to 29%; pest or weed control at 70 g/ha [2, 16]: 0 to 29%; pest or weed control at 140 g/ha [2, 16]: 45 to 59%; pest or weed control at 70 g/ha [2, 17]: 60 to 74%; pest or weed control at 140 g/ha [2, 17]: 75 to 84% |
